Measured values taken from US7312323B2, “Enzymes and polynucleotides encoding the same” (The Horticulture and Food Research Institute of New Zealand …, priority 2002, dated 2007).

Legend:
[1] = Thermal rearrangement, pentane extracts from purified protein injected at different port temperatures; assay type: physicochemical
Experimental: Dynamic headspace methods were also used to collect the headspace volatiles from the purified extracts on to 100 mg Chromosorb 105 adsorbent traps. The protein was placed into 50 mL Quickfit® test tubes, which were fitted with a headspace adaptor with an air inlet and outlet. Volatiles were collected onto the Chromosorb 105 adsorbent traps, which were fitted to the air outlet port of each adaptor. The volatiles were purged from the vessel onto the traps with clean air at 50 mL min^−1 for 18 hours. The traps were stored at −15° C. for up to one week, and then subjected to GC-FIDIMS analysis. Finally, pentane extracts were taken from the purified extracts. An aliquot (2.5 ml) of pentane was added to the purified extracts and was left to extract for 18 hours. The pentane was removed and then concentrated with a stream of N2 gas. This was then injected onto the GC-MS at 150° C.
More light can be shed on the possibility of rearrangement of the products using pentane extraction.
In an experiment to test for thermal rearrangement, injections of pentane extract from purified protein were made at temperatures of 125, 150 and 210° C.; or pentane extract from Actinidia flowers were made at temperatures of 100, 125, 150 and 210° C. […] Germacrene B modulated slightly in response to temperature shifts although no gamma-elemene was found as might be predicted. In addition the predicted precursor for delta elemene—germacrene C (Feger et al., Flavour and Fragrance Journal 15: 170-173 (2000)) was not detected at any time. Germacrene A was also not detected at any time. […] Elemol may arise from further rearrangements of delta-elemene or from other elemene sources or from hedycaryol (Chamblee et al., J. Essent. Oil Res. 9: 127-132 (1997)). No GC-MS traces in any experiments indicated evidence for germacrene-C or for hedycaryol.

[2] = Thermal rearrangement, pentane extracts from Actinidia flowers injected at different port temperatures; assay type: physicochemical
Experimental: Whole flowers of the same plants were also harvested at anthesis in 2000. 18.6 g and 21 g of flowers from a mixture of developmental stages were placed in 2× Quickfit® Erlenmeyer flasks as above. Volatiles were collected onto a Chromosorb adsorbent trap in duplicate, after the system had been equilibrated for 30 min at room temperature (ca. 23° C.), by purging onto the trap with clean air at 25 mL min^−1 for 60 minutes. The trap was stored at −15° C. for one week and then analysed by GC-FD/MS. The same petals (1.99 g) were then extracted with pentane-ether (2 ml) and stored at −20° C. until analysed. The pentane (GPR, BDH) had been purified by distillation and by passing through a column of activated alumina. Pentane extracts were reduced by rotary evaporation and were dried by passing through a small column of anhydrous MgSO4 before the volume was reduced to ca. 50 μL under a gentle stream of nitrogen. The extract was analysed by GC-FID/MS.
GC-MS Analysis of dynamic headspace samples and pentane extracts: Volatile compounds were thermally desorbed from the headspace traps at 150° C. and were cryo-focussed at the beginning of the GC column (Young, 1981). The column outlet was split between the GC (Hewlett Packard 5890) FID detector (for quantitation) and VG-70SE (VG-Micromass, Manchester, U.K.) mass spectrometer (for component identification) with an electron impact ionisation of 70 eV. Separations were carried out in a 30 m×0.32 mm i.d., 0.5 μn DBWax capillary column (J & W Scientific, Folsom, USA), starting at 30° C. for 6 min, increasing by 3° C. min^−1 to 102° C., 5° C. min^−1 to 210° C. and held for 5 min. Injector temperature was 210° C. The carrier gas was He at a flow rate of ˜30 cm s^−1, and the FID and mass spectrometer transfer line were at 210° C. Quantification of compounds was carried out using an average detector response based on methyl butanoate, ethyl butanoate, hexanol and methyl benzoate. Components were identified by comparison with spectra in the mass spectral database (NIST 1998, Wiley 7 and an in-house database), retention indices (in-house database) and in some cases direct GC-MS comparison with authentic standards. Separations for the earlier 2000 samples were carried out in the same manner as above except the programme started at 30° C. for 6 min, increasing by 3° C. min^−1 to 102° C., 5° C. min^−1 to 190° C. and held for 5 min. Analysis of the pentane extract used a programme of 2 min at 40° C., 5° C. min^−1 to 200° C., 15° C. m^−1 to 240° C. and held for 20 min. For genotype 32-10-07a: the GC-MS was programmed to start at 30° C. for 2 min, increasing by 3° C. min^−1 to 50° C., 5° C. min^−1 to 130° C., 10° C. min^−1 to 240° C. and held for 2 min. Injector temperature was 240° C.
In an experiment to test for thermal rearrangement, injections of pentane extract from purified protein were made at temperatures of 125, 150 and 210° C.; or pentane extract from Actinidia flowers were made at temperatures of 100, 125, 150 and 210° C.

[3] = Bülow and König 2000; cited from earlier work
Heliothis virescens = details: Mozuraitis et al. 2002; cited from earlier work
Periplanata americana L. = details: Nishino et al. 1977; cited from earlier work
[4] = injection port temperature 125 °C
[5] = injection port temperature 150 °C
[6] = injection port temperature 210 °C

Peak Area [1, 4]: 4.22 × 10^6
Peak Area [1, 5]: 4.90 × 10^6
Peak Area [1, 6]: 3.91 × 10^6
Peak Area ([2]; injection port temperature 100 °C): 2.85 × 10^7 ^
Peak Area [2, 4]: 3.78 × 10^7
Peak Area [2, 5]: 3.87 × 10^7
Peak Area [2, 6]: 2.42 × 10^7
Structure (SMILES): C=C1C=CC(C(C)C)CCC(C)=CCC1 (stereo not shown) [Germacrene D, 7-iso-propyl-10-methyl-4-methylene-cyclodeca-5,10-diene]
temperature up to which stable [3]: up to 180 °C
effect on moth behaviour (Heliothis virescens): increase attraction of and oviposition
effect on male cockroach (Periplanata americana L.): sex stimulant
